Experiments:
Assay type in all cases: biochemical
[1] = target: rat sucrase (partially purified alpha-glucosidase from intestinal rat powder) (Rattus norvegicus, UniProt P23739); assay: Intestinal alpha-glucosidase assay, sucrose substrate (Glucose GO Kit)
Method in brief: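 First step: 60 min, 37 °C, compound with partially purified rat intestinal alpha-glucosidase. Next, maltose or sucrose for 30 min at 37 °C, ended at 90 °C for 5 min. Glucose quantified enzymatically; concentration–inhibition data fitted 4-PL for IC50.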

[2] = target: T1, recombinant alpha-glucosidase II (murine full-length glucosidase II, alpha and beta subunits, Glu 2) (Mus musculus, UniProt Q8BHN3); assay: Alpha-glucosidase II assay (4-methylumbelliferyl-alpha-D-pyranoside substrate, fluorescence); details: Glucosidase 2; read-out: Glu2 IC50
T1 construct: made in house; host or cells: HEK-293T cells transduced with BacMam viruses (75% alpha, 25% beta); protein harvested from culture supernatant

[3] = target: rat maltase (partially purified alpha-glucosidase from intestinal rat powder); assay: Intestinal alpha-glucosidase assay, maltose substrate (Glucose GO Kit)
Method in brief: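 Enzyme from intestinal rat powder, partially purified, is exposed to compound for 60 min at 37 °C. Disaccharide substrate (maltose or sucrose respectively) then reacts 30 min at 37 °C. Heat-stopped samples are assayed for glucose, and percent inhibition versus concentration gives IC50 via 4-PL.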

[4] = target: recombinant human GAA (acid alpha-glucosidase) (Homo sapiens, UniProt P10253); assay: Acid alpha-glucosidase (GAA) assay (4-methylumbelliferyl-alpha-D-pyranoside substrate, fluorescence)
Method in brief: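 IC50 from 4-PL curve fit of percent inhibition, based on fluorescence (365/440 nm) of released methylumbelliferone relative to uninhibited enzyme. Compound dilutions and human GAA incubated 60 min, 37 °C, before 20 min substrate reaction at 37 °C, quenched at pH 10.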

T1 sequence (O08795 15-521): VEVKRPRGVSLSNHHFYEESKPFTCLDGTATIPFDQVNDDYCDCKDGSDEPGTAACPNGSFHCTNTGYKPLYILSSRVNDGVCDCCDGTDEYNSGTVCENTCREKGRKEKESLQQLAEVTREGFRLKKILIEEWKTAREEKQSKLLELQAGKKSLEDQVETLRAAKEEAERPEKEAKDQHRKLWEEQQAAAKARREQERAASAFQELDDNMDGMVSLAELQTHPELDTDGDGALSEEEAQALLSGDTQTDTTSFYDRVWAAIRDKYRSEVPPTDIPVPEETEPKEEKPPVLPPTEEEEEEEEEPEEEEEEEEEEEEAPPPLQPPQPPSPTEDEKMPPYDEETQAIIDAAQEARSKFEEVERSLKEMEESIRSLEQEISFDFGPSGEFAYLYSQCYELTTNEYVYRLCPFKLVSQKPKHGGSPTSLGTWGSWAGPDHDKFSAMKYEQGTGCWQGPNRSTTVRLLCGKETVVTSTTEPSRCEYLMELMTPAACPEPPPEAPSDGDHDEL
T1 sequence (Q8BHN3 33-944): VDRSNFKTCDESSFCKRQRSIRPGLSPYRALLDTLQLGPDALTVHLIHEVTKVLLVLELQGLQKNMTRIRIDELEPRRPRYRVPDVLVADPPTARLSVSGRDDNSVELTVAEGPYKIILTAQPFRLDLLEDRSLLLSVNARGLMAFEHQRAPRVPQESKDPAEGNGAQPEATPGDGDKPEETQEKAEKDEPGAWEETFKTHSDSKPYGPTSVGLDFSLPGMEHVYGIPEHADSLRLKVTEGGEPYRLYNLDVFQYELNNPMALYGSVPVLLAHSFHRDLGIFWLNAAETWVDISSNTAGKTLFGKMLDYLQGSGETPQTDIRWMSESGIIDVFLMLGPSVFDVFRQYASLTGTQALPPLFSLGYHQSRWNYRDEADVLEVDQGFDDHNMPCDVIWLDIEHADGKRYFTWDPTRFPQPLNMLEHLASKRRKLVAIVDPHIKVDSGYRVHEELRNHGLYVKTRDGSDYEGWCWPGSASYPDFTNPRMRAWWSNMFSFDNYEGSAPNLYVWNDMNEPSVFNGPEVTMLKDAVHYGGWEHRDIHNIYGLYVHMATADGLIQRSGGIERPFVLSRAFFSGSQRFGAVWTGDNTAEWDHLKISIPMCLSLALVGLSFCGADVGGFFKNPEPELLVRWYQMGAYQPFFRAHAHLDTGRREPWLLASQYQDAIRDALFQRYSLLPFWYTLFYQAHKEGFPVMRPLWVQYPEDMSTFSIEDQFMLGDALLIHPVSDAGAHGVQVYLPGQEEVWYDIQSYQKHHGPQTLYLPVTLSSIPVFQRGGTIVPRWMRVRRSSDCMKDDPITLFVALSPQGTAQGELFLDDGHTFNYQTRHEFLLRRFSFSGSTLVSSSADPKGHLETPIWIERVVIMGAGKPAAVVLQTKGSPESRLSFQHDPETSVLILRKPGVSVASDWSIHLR
rat sucrase (partially purified alpha-glucosidase from intestinal rat powder), sequence (P23739 whole entry): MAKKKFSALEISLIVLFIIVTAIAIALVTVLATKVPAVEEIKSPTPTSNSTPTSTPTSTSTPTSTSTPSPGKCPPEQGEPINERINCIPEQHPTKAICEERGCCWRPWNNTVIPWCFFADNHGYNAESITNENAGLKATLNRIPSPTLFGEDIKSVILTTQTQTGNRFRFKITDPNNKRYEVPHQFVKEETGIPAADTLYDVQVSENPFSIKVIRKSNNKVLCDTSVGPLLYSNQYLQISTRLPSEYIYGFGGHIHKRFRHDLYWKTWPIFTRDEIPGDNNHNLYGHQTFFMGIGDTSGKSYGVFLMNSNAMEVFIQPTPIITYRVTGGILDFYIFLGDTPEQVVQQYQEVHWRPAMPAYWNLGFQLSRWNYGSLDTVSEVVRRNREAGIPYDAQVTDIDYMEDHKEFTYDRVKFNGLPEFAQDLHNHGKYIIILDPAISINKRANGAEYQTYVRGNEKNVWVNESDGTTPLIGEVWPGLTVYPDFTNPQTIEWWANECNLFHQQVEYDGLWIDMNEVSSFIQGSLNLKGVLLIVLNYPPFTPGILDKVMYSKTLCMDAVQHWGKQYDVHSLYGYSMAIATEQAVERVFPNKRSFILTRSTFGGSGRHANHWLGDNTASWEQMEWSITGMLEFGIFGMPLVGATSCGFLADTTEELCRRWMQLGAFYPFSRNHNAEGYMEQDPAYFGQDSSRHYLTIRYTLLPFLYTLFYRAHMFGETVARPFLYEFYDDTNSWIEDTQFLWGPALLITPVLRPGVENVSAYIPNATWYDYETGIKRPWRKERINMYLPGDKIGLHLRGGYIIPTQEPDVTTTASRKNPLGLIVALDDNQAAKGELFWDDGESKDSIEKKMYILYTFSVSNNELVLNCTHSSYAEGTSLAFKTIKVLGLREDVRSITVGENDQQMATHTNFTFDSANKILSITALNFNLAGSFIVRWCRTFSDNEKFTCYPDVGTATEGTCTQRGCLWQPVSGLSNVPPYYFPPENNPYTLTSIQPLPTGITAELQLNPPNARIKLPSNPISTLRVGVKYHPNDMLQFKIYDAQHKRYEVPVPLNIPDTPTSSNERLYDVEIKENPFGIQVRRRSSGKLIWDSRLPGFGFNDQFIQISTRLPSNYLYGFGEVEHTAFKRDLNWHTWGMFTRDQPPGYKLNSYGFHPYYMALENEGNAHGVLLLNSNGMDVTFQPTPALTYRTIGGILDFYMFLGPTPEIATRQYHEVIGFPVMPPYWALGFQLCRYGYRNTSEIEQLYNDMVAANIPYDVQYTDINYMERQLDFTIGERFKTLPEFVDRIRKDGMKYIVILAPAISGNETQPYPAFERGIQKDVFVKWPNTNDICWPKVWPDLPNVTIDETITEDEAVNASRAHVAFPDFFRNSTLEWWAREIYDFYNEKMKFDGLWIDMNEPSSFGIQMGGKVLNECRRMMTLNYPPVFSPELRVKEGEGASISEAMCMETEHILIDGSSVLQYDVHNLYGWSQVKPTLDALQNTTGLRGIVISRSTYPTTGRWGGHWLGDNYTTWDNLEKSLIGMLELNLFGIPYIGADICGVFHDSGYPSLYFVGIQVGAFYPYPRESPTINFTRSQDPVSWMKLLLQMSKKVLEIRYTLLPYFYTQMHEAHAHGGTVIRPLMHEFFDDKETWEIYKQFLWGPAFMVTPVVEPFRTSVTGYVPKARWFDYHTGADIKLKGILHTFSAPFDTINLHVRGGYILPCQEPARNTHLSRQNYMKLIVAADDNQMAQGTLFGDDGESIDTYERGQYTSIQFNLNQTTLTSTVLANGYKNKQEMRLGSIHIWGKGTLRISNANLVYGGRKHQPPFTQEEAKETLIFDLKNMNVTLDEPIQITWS

## N#Cc1cc(Br)cc(NCc2cccc(CN3C[C@H](O)[C@@H](O)[C@H](O)[C@H]3CO)c2)c1 [Compound 1023, 3-bromo-5-{[(3-{[(2R,3R,4R,5S)-3,4,5-trihydroxy-2-(hydroxymethyl)piperidin-1-yl]methyl}phenyl)methyl]amino}benzonitrile]
[1]
  IC50: 66 nM
[2]
  IC50: 42600 nM
[3]
  IC50: 30 nM
[4]
  IC50: 1440 nM

## O=[N+]([O-])c1cc(N2CC3CC2CO3)ccc1NCc1ccc(CN2C[C@@H](O)[C@H](O)[C@@H](O)[C@@H]2CO)cc1 (stereo in doubt) [Compound 1015, (2S,3S,4S,5R)-2-(hydroxymethyl)-1-[(4-{[(2-nitro-4-{2-oxa-5-azabicyclo[2.2.1]heptan-5-yl}phenyl)amino]methyl}phenyl)methyl]piperidine-3,4,5-triol]
[1]
  IC50: 78 nM
[2]
  IC50: 2 nM
[3]
  IC50: 8 nM
[4]
  IC50: 129 nM

## COCCCCCN(CCCNc1ccc(N=[N+]=[N-])cc1[N+](=O)[O-])CCCN1C[C@H](O)[C@@H](O)[C@H](O)[C@H]1CO [Compound 1221, (2R,3R,4R,5S)-1-[3-({3-[(4-azido-2-nitrophenyl)amino]propyl}(5-methoxypentyl)amino)propyl]-2-(hydroxymethyl)piperidine-3,4,5-triol]
[1]
  IC50: 424 nM
[2]
  IC50: 220 nM
[3]
  IC50: 233 nM
[4]
  IC50: 4510 nM

## OC[C@@H]1[C@@H](O)[C@H](O)[C@@H](O)CN1CCCCCCNc1ccc(-c2ncccn2)cc1C(F)(F)F [Compound 1258, (2R,3R,4R,5S)-2-(hydroxymethyl)-1-(6-{[4-(pyrimidin-2-yl)-2-(trifluoromethyl)phenyl]amino}hexyl)piperidine-3,4,5-triol]
[1]
  IC50: 108 nM
[2]
  IC50: 31 nM
[3]
  IC50: 19 nM
[4]
  IC50: 32 nM

## COc1cc(-c2ncccn2)ccc1NCCCCCCN1C[C@H](O)[C@@H](O)[C@H](O)[C@H]1CO [Compound 1231, (2R,3R,4R,5S)-2-(hydroxymethyl)-1-(6-{[2-methoxy-4-(pyrimidin-2-yl)phenyl]amino}hexyl)piperidine-3,4,5-triol]
[1]
  IC50: 67 nM
[2]
  IC50: 30 nM
[3]
  IC50: 30 nM
[4]
  IC50: 91 nM

## OC[C@@H]1[C@@H](O)[C@H](O)[C@@H](O)CN1CCCCCCCCC1CNCCO1 (stereo partly drawn) [Compound 1311, (2R,3R,4R,5S)-2-(hydroxymethyl)-1-[8-(morpholin-2-yl)octyl]piperidine-3,4,5-triol]
[1]
  IC50: 1010 nM
[2]
  IC50: 197 nM
[3]
  IC50: < 10 nM
[4]
  IC50: 747 nM

## N#Cc1cc(Br)cc(NCc2ccc(CN3C[C@H](O)[C@@H](O)[C@H](O)[C@H]3CO)cc2)c1 [Compound 1026, 3-bromo-5-{[(4-{[(2R,3R,4R,5S)-3,4,5-trihydroxy-2-(hydroxymethyl)piperidin-1-yl]methyl}phenyl)methyl]amino}benzonitrile]
[1]
  IC50: < 1 nM
[2]
  IC50: < 1 nM
[3]
  IC50: < 1 nM
[4]
  IC50: 64 nM

## Cc1cc(NCc2cccc(CN3C[C@H](O)[C@@H](O)[C@H](O)[C@H]3CO)n2)cc(-c2ccco2)c1 [Compound 1334, (2R,3R,4R,5S)-1-{[6-({[3-(furan-2-yl)-5-methylphenyl]amino}methyl)pyridin-2-yl]methyl}-2-(hydroxymethyl)piperidine-3,4,5-triol]
[1]
  IC50: 336 nM
[2]
  IC50: > 100000 nM
[3]
  IC50: 224 nM
[4]
  IC50: 714 nM

## COc1ccc(CCCCCN2C[C@H](O)[C@@H](O)[C@H](O)[C@H]2CO)cc1 [Compound 1310, (2R,3R,4R,5S)-2-(hydroxymethyl)-1-[5-(4-methoxyphenyl)pentyl]piperidine-3,4,5-triol]
[1]
  IC50: 371 nM
[2]
  IC50: 78 nM
[3]
  IC50: < 10 nM
[4]
  IC50: 1190 nM

## Cc1cc(NCc2cccc(CN3C[C@H](O)[C@@H](O)[C@H](O)[C@H]3CO)c2)cc(N2CCOCC2)c1 [Compound 1031, (2R,3R,4R,5S)-2-(hydroxymethyl)-1-{[3-({[3-methyl-5-(morpholin-4-yl)phenyl]amino}methyl)phenyl]methyl}piperidine-3,4,5-triol]
[1]
  IC50: 288 nM
[2]
  IC50: 10700 nM
[3]
  IC50: 174 nM
[4]
  IC50: 5220 nM

## CN(C)Cc1ccc(NCCCCCCN2C[C@H](O)[C@@H](O)[C@H](O)[C@H]2CO)c(C#N)c1 [Compound 1257, 5-[(dimethylamino)methyl]-2-({6-[(2R,3R,4R,5S)-3,4,5-trihydroxy-2-(hydroxymethyl)piperidin-1-yl]hexyl}amino)benzonitrile]
[1]
  IC50: 70 nM
[2]
  IC50: 19 nM
[3]
  IC50: 8 nM
[4]
  IC50: 73 nM

## COc1ccc(-c2ccc(CN3C[C@H](O)[C@@H](O)[C@H](O)[C@H]3CO)cc2)cc1 [Compound 1306, (2R,3R,4R,5S)-2-(hydroxymethyl)-1-({4′-methoxy-[1,1′-biphenyl]-4-yl}methyl)piperidine-3,4,5-triol]
[1]
  IC50: < 10 nM
[2]
  IC50: 44000 nM
[3]
  IC50: < 10 nM
[4]
  IC50: 4570 nM

## Nc1ccc(NCCCCCCCCN2C[C@H](O)[C@@H](O)[C@H](O)[C@H]2CO)c([N+](=O)[O-])c1Cl [Compound 1277, (2R,3R,4R,5S)-1-{8-[(4-amino-3-chloro-2-nitrophenyl)amino]octyl} 2-(hydroxymethyl)piperidine-3,4,5-triol]
[1]
  IC50: 133 nM
[2]
  IC50: < 1 nM
[3]
  IC50: 52 nM
[4]
  IC50: < 10 nM

## OC[C@@H]1[C@@H](O)[C@H](O)[C@@H](O)CN1CCCCCCNc1ccc(-c2ncccn2)cc1F [Compound 1229, (2R,3R,4R,5S)-1-(6-{[2-fluoro-4-(pyrimidin-2-yl)phenyl]amino}hexyl)-2-(hydroxymethyl)piperidine-3,4,5-triol]
[1]
  IC50: 70 nM
[2]
  IC50: 37 nM
[3]
  IC50: 24 nM
[4]
  IC50: 81 nM

## Cc1cc(NCc2ccc(CN3C[C@H](O)[C@@H](O)[C@H](O)[C@H]3CO)cc2)cc(-c2ncco2)c1 [Compound 1315, (2R,3R,4R,5S)-2-(hydroxymethyl)-1-{[4-({[3-methyl-5-(1,3-oxazol-2-yl)phenyl]amino}methyl)phenyl]methyl}piperidine-3,4,5-triol]
[1]
  IC50: 44 nM
[2]
  IC50: 907 nM
[3]
  IC50: 9 nM
[4]
  IC50: 440 nM

## OC[C@@H]1[C@@H](O)[C@H](O)[C@@H](O)CN1CCCCCCNc1cc(Cl)cc(-c2ncco2)c1 [Compound 1211, (2R,3R,4R,5S)-1-(6-{[3-chloro-5-(1,3-oxazol-2-yl)phenyl]amino}hexyl)-2-(hydroxymethyl)piperidine-3,4,5-triol]
[1]
  IC50: 72 nM
[2]
  IC50: 2 nM
[3]
  IC50: 1 nM
[4]
  IC50: 16 nM

## COc1cc(NCCCCCCN2C[C@H](O)[C@@H](O)[C@H](O)[C@H]2CO)cc(-c2ncccn2)c1 [Compound 1217, (2R,3R,4R,5S)-2-(hydroxymethyl)-1-(6-{[3-methoxy-5-(pyrimidin-2-yl)phenyl]amino}hexyl)piperidine-3,4,5-triol]
[1]
  IC50: 225 nM
[2]
  IC50: 11 nM
[3]
  IC50: 11 nM
[4]
  IC50: 10 nM

## Cc1cc(NCc2ccc(CN3C[C@H](O)[C@@H](O)[C@H](O)[C@H]3CO)cc2)cc(-n2ccnn2)c1 [Compound 1323, (2R,3R,4R,5S)-2-(hydroxymethyl)-1-{[4-({[3-methyl-5-(1H-1,2,3-triazol-1-yl)phenyl]amino}methyl)phenyl]methyl}piperidine-3,4,5-triol]
[1]
  IC50: 37 nM
[2]
  IC50: 382 nM
[3]
  IC50: 11 nM
[4]
  IC50: 76 nM

## CN(C)Cc1ccc(NCCCCCCN2C[C@H](O)[C@@H](O)[C@H](O)[C@H]2CO)c(F)c1 [Compound 1236, (2R,3R,4R,5S)-1-[6-({4-[(dimethylamino)methyl]-2-fluorophenyl}amino)hexyl]-2-(hydroxymethyl)piperidine-3,4,5-triol]
[1]
  IC50: 254 nM
[2]
  IC50: 39 nM
[3]
  IC50: 36 nM
[4]
  IC50: 556 nM

## [N-]=[N+]=Nc1ccc(NCCNC(=O)NCCN2C[C@H](O)[C@@H](O)[C@H](O)[C@H]2CO)c([N+](=O)[O-])c1 [Compound 1276, 1-{2-[(4-azido-2-nitrophenyl)amino]ethyl}-3-{2-[(2R,3R,4R,5S)-3,4,5-trihydroxy-2-(hydroxymethyl)piperidin-1-yl]ethyl}urea]
[1]
  IC50: 316 nM
[2]
  IC50: 39 nM
[3]
  IC50: 49 nM
[4]
  IC50: 253 nM

## [N-]=[N+]=Nc1ccc(NCCCCCCN2C[C@H](O)[C@@H](O)[C@H](O)[C@H]2CO)c(C(N)=O)c1 [Compound 1296, 5-azido-2-({6-[(2R,3R,4R,5S)-3,4,5-trihydroxy-2-(hydroxymethyl)piperidin-1-yl]hexyl}amino)benzamide]
[1]
  IC50: 494 nM
[2]
  IC50: 29 nM
[3]
  IC50: < 10 nM
[4]
  IC50: 124 nM

## Cc1cc(-c2ncccn2)ccc1NCCCCCCN1C[C@H](O)[C@@H](O)[C@H](O)[C@H]1CO [Compound 1233, (2R,3R,4R,5S)-2-(hydroxymethyl)-1-(6-{[2-methyl-4-(pyrimidin-2-yl)phenyl]amino}hexyl)piperidine-3,4,5-triol]
[1]
  IC50: 130 nM
[2]
  IC50: 23 nM
[3]
  IC50: 32 nM
[4]
  IC50: 1040 nM

## COc1ccc(C#CCCCCCN2C[C@H](O)[C@@H](O)[C@H](O)[C@H]2CO)cc1 [Compound 1338, (2R,3R,4R,5S)-2-(hydroxymethyl)-1-[7-(4-methoxyphenyl)hept-6-yn-1-yl]piperidine-3,4,5-triol]
[1]
  IC50: 371 nM
[2]
  IC50: 109 nM
[3]
  IC50: 146 nM
[4]
  IC50: 860 nM

Reference: patent publication US20250197372A1 (priority 2020, published 2025)
